Assay results taken from patent US9776992B2, “1-oxo-1,2-dihydroisoquinolin-7-yl-(5-substituted-thiophen-2-yl)-sulfonamide compounds, formulations containing those compounds, and their use as AICARFT inhibitors in the treatment of cancers” (Eli Lilly and Company, priority 2014, dated 2017).

Target: AICARFT (Homo sapiens, UniProt P31939)
Assay: AICARFT in vivo target inhibition (IVTI) assay, tumor xenografts (ZMP)
Set-up: from tissue; host or cells: HCT-116 and NCI-H460 tumour xenografts in female athymic nude mice; species or system mouse
Protocol: In vivo studies are performed using female athymic nude mice (Harlan) with a bodyweight of 23-28 g at first measurement. Upon receipt and throughout the study, the animals are housed 5 animals per cage in appropriately sized solid-bottom cages with contact bedding. The animal room is maintained on a 12-hour light/dark cycle. Animals are acclimated for 14 days prior to implantation of the NCI-H460 or HCT-116 cells on low folate diet (Teklad 130451) ad libitum and autoclaved tap water is provided ad libitum. The HCT-116 and NCI-H460 cell line are obtained from American Type Culture Collection (ATCC) and is cultured following ATCC instructions. Cells used for implantation are harvested during log phase growth and suspended in serum-free media. The suspended cells are then diluted 1:1 with BD Matrigel Matrix (ref 354234). Cells are injected in the right flank with 5.0E+06 cells (0.2 mL cell/Matrigel suspension). Tumors are monitored beginning day 8 post implant. Animals are redistributed into groups with 5-6 animals per group utilizing proprietary randomization software when average tumor volume reaches 200 mm^3. Groups 1-12 are maintained on a low folate diet (Teklad 130451) and folic acid (Sigma F8798 Lot #SLBH0909V) administration at doses listed in the Table 19 began 28 hours prior to dose initiation and 4 hours prior to each dose. Folic acid is formulated weekly in PBS and dosed via oral gavage at 0.2 mL. Groups 13-16 are placed on standard chow (Teklad 2920X) at randomization. The compound is formulated weekly in 20% HPBCD in Phosphate buffer pH 8 with one molar equivalent NaOH added. The formulated compound is administered at the doses and schedules indicated in Table 19 by oral gavage (0.2 mL). The vehicle is also given QD as the control arm of the study. Tumor volume and body weight are measured 2× a week. Tumor volume is determined by caliper measurements (mm) and using the formula for an ellipsoid sphere: tumor volume (mm^3)=length×width^2/2, where length and width refer to the larger and smaller perpendicular dimensions collected at each measurement. The animal behavior and animal health are monitored daily during dosing period.
The in vivo effects of AICARFT inhibition on the concentrations of pathway-related analytes are determined by liquid chromatography-mass spectrometry (LC-MS) analysis of tumor xenografts. Tumor xenograft samples on dry ice are weighed on an analytical balance, transferred to 2 mL Eppendorf Safe-Lock Tube™, and placed on dry ice. An internal standard solution containing 13C5-ZMP (1000 ng/mL), 13C5-AICAr (500 ng/mL), ascorbic acid (0.1%), and formic acid (0.1%) in MeOH/DCM (80:20) is prepared and stored at 20° C. For every mg of tissue in the sample tube, 10 L of internal standard solution is added. Standard curves containing ZMP, dUMP, AICAr at concentrations of 7.6-50,000 ng/mL are prepared separately in the internal standard solution.
One 5 mm steel bead (Qiagen) is added to each sample tube and the tubes are placed on wet ice for 15 minutes. Samples are homogenized on a Qiagen TissueLyser II for 5 minutes at 15 Hz, and then centrifuged on an Eppendorf 5430R microcentrifuge for 10 minutes at 13,000 rpm and 4° C. Aliquots of each supernatant (200 μL) are removed and placed into a deep 96-well plate. Aliquots (200 μL) of each standard curve solution are also placed in a deep 96-well plate. A Beckman Biomek FX liquid handler added DCM (600 μL) and 0.1% ascorbic acid solution (200 μL) to each well. The plate is sealed, vortexed for 5 minutes, and centrifuged for 5 minutes at 4,000 rpm and 4° C. on an Eppendorf 5810R centrifuge. Aliquots (75 μL) of the top layer are transferred to a clean 96-well plate, and an additional 75 μL of 40 mM ammonium acetate, pH 4 is added to each well. The plates are sealed prior to analysis. The LC-MS method utilized a Shimadzu Prominence 20A HPLC system connected to an AB Sciex 5500™ or an AB Sciex 6500™ triple quadrupole mass spectrometer running Analyst® software.

Sequence of AICARFT (P31939 whole entry): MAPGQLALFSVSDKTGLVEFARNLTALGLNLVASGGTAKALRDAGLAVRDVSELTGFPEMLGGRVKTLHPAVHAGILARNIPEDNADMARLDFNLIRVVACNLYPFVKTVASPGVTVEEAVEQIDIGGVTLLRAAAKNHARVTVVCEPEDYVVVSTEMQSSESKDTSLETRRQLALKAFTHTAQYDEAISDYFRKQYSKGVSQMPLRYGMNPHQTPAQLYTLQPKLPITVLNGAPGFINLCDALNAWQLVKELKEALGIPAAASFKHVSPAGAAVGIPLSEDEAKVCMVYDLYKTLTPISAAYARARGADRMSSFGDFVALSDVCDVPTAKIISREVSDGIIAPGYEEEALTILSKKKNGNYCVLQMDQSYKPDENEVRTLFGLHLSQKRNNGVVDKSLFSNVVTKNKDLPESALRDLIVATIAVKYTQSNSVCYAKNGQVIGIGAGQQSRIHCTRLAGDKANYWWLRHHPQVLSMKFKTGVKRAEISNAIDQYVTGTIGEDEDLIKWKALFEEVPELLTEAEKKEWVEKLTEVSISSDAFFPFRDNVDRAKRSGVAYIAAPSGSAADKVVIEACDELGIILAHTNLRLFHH

With `O=c1[nH]ccc2cc(F)c(NS(=O)(=O)c3ccc(N4CC[C@@H](O)C4)s3)cc12` [Example 1, N-(6-Fluoro-1-oxo-1,2-dihydroisoquinolin-7-yl)-5-[(3R)-3-hydroxypyrrolidin-1-yl]thiophene-2-sulfonamide] the “Mean tumor ZMP” value (HCT-116 xenograft, Group 6, low folate diet, folic acid 0.75 mg/kg (QD × 15, orally), 10 mg/kg QD × 14, orally, Day 23) was 20 µM, the “Mean tumor ZMP” value (HCT-116 xenograft, Group 7, low folate diet, folic acid 0.75 mg/kg (QD × 15, orally), 30 mg/kg QD × 14, orally, Day 23) was 35 µM and the “Mean tumor ZMP” value (HCT-116 xenograft, Group 14, standard chow, no folic acid, 10 mg/kg QD × 14, orally, Day 23) was 7.0 µM. The “Mean tumor ZMP” value (HCT-116 xenograft, Group 15, standard chow, no folic acid, 30 mg/kg QD × 14, orally, Day 23) was 26 µM, the “Mean tumor ZMP” value (NCI-H460 xenograft, Group 14, standard chow, no folic acid, 10 mg/kg QD × 13, orally, Day 20) was 3.7 µM and the “Mean tumor ZMP” value (NCI-H460 xenograft, Group 15, standard chow, no folic acid, 30 mg/kg QD × 13, orally, Day 20) was 66 µM.
